Target: Mu opioid receptor (Homo sapiens, UniProt P35372)
Sequence (P35372 whole entry): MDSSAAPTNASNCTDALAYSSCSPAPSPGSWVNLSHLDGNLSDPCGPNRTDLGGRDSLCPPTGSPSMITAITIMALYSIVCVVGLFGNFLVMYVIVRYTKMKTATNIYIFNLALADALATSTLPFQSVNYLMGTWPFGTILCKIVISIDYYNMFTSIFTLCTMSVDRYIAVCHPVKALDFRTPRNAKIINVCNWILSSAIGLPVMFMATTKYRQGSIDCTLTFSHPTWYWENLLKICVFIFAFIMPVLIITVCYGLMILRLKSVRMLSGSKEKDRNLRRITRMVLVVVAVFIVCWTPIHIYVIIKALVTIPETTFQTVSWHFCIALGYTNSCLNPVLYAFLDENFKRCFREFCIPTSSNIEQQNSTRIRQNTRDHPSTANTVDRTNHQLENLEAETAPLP

C[C@@H](NC(=O)[C@@H](N)Cc1ccc(O)cc1)C(=O)NCC(=O)N(C)[C@@H](Cc1ccccc1)C(=O)NCCO [DAMGO Control, DAMGO]
Functional GTPgS Mu Efficacy % DAMGO: 100 ± 0%

Source: patent US20050192308A1 (priority 2001, published 2005)
